From article PMC9738107, “Targeting of the ELR+CXCL/CXCR1/2 Pathway Is a Relevant Strategy for the Treatment of Paediatric Medulloblastomas” (Cells, 2022)

How the values were obtained:
[1] = tested on: Daoy, ONS-76, HD-MB03, and D341Med wild-type cells; experiment: Cell proliferation assay (cell counting); format: cell-based, human; conditions: 1 µM C29, pre-incubation prior to cell seeding, all tested cell lines
Experimental: To confirm the efficacy of C29 on various parameters of cancer cell aggressiveness, we first performed cell proliferation assays at longer time points.
Figure 4 C29 reduces proliferation, migration, and invasion of naïve MB cells. (A) Proliferation of Daoy, ONS-76, HD-MB03, and D341Med wild-type cells after treatment with 1 μM C29 or the control (DMSO), n = 3. (B) Clonogenic assay on Daoy (n = 4), ONS-76 (n = 3) and HD -MB03 (n = 5) cells after treatment with control (DMSO) or C29 (1 μM or 2.5 μM). Scale = 500 μm. (C) Cell migration through the Boyden chamber of Daoy and ONS-76 cells specifically attracted by 200 ng/mL CXCL8. Results are expressed as percentage of control (DMSO) (n = 3). […] Results are expressed as percentage of day 0, n = 4. […]
(§1) 1500 Daoy, ONS ‐76, HD ‐MB03 or D341 Med cells were sown in triplicate in plates with six wells and the cells were counted daily for 8 days using a Coulter counter (Ville‐ pinte). The relative number of cells (compared to day 1) was determined daily. […]
Y = Y0 * exp(k * X) (Y= Cell number at day X; Y0= Cell number at day 0 (graphically calculated); X= Day following cell plating (cells plated at X0=0); k= Exponential growth constant rate. Doubling times were compared. […]
were seeded in 6‐well plates. […] Cell death was detected by PE chan‐ nel using FACS Cytoflex (Beckman) immediately after labelling the cells with 1ug/ml pro‐ pidium iodide (Miltenyi Biotec). […]

[2] = tested on: DR1/DR2 and HR1/HR2 radio-resistant cells; experiment: Cell proliferation assay (cell counting), radiation-resistant cells; format: cell-based, human; conditions: 1 µM
Experimental: (§2) Figure 8 C29 is efficient on radioresistant MB cell lines. (A) Cell death after 48 h of treatment with control (DMSO, CT) or C29 1, 2.5, or 5 µM on radiation-resistant cells (RR) and normal cells (N), n = 3. Statistics were performed using the one-way method ANOVA. * p < 0.05, ** p < 0.01, *** p < 0.001. For this figure, DR1 = D1, DR2 = D2, HR1 = H1, HR2 = H2, and C8D1A = C8. (B) Proliferation of DR1/DR2 (A) and HR1/HR2 (B) radio-resistant cells after 1 µM C29 treatment or control (DMSO), n = 3. (C) Clonogenic assay on DR1, DR2 (n = 3) and HR1, HR2 (n = 3) cells after treatment with control (DMSO) or C29 (1 µM or 2.5 µM). […] Results are expressed as percentage of control (n = 3). […]
as §1
(§3) Y = Y0 * exp(k * X) (Y= Cell number at day X; Y0= Cell number at day 0 (graphically calculated); X= Day following cell plating (cells plated at X0=0); k= Exponential growth constant rate. Doubling times were compared.
(§4) 150 Daoy/DR1/DR2/ ONS ‐ 76 and 300 HD ‐ MB03/HR1/HR2 cells were seeded in trip‐ licate in 6‐well plates in the presence or absence of treatment (1 or 2∙5μM MCK140 or DMSO as control). […] The number of clones was quantified using ImageJ software. […]

HR1 cells = experiment: Clonogenic assay; format: cell-based, human
Experimental: Figure 8 C29 is efficient on radioresistant MB cell lines. (A) Cell death after 48 h of treatment with control (DMSO, CT) or C29 1, 2.5, or 5 µM on radiation-resistant cells (RR) and normal cells (N), n = 3. Statistics were performed using the one-way method ANOVA. * p < 0.05, ** p < 0.01, *** p < 0.001. For this figure, DR1 = D1, DR2 = D2, HR1 = H1, HR2 = H2, and C8D1A = C8. (B) Proliferation of DR1/DR2 (A) and HR1/HR2 (B) radio-resistant cells after 1 µM C29 treatment or control (DMSO), n = 3. (C) Clonogenic assay on DR1, DR2 (n = 3) and HR1, HR2 (n = 3) cells after treatment with control (DMSO) or C29 (1 µM or 2.5 µM). (D) Cell migration through the Boyden chamber of DR1 and DR2 cells specifically attracted by 200 ng/mL CXCL8. Cells were treated with control (DMSO) or C29 (1 and 2.5 µM). Results are expressed as percentage of control (n = 3). Scale = 1000 μm. Statistics were performed using Student t-test for 2 comparisons only or ANOVA test for multiple comparisons. * p < 0.05, ** p < 0.01, *** p < 0.001. […]
each month by using PlasmoTest Kit (#10L07‐MM, InvivoGen, Toulouse, France). […]
as §4

DR1 and DR2 cells = experiment: CXCL8-dependent migration in Boyden chamber; format: cell-based, human; conditions: DR1 and DR2, 1 µM, 200 ng/mL CXCL8
Experimental: as §2, §1, §3, §4

[3] = tested on: uveal melanoma cells (Mel202); design: method as in PMID 24676409; conditions: Mel202, low expression of CXCR1/2; cited from earlier work

O=C(Nc1cccc(Cl)c1)Nc1nc2ccc([N+](=O)[O-])cc2s1 [C29, 1-(3-chlorophenyl)-3-(6-nitrobenzo[d]thiazol-2-yl) urea]
Proliferation [1]: completely inhibited proliferation | Proliferation [2]: reduce proliferation | Clone formation (HR1 cells; HR1, 1 µM): reduced the number of clones | Clone formation (HR1 cells; HR1, 2.5 µM): extinguished them | CXCL8-dependent migration (DR1 and DR2 cells): significantly inhibited | Effect on proliferation and survival [3]: no effect
